One experiment concerns primary human T-cells. Briefly: Proliferation assay (5 days, CellTiter-Glo, CD3-stimulated T-cells). The class given is cell-based. The settings on record: for Emax proliferation (% activation): CD3 condition, normalised to DMSO (neutral) and 20 μM reference compound A1 = 100%; for EC50: Homo sapiens, T-cell, 120 h, CD3-stimulated primary human T-cells, 5 days, CellTiter-Glo, fitted sigmoidal curve, read-out: Tcell Proliferation CD3 EC50. The procedure: As readouts for T-cell activation, 1L2 secretion after 24 hours and proliferation after 5 days was measured. Increases in IL2 secretion and proliferation upon compound treatment were assessed as the % of the maximum of reference compound A1. WO 2016/139181 discloses reference compound A1 as example 70. As a counter screen and to make sure that no unwanted TCR-independent activation was triggered, PBS conditions were run for all compounds.
Expanded primary human T-cells are thawed and cultured in RPMI 1640 (Gibco, #61870-010)+5% human serum (HS, Sigma, #H3667)+1 mM Sodium Pyruvate (Gibco, #11360-039)+50 μM 2-mercaptoethanol (Gibco, #31350-010) and 1× Pen-Strep (Life Technologies, #15140122) medium at density of 2 Mio/ml for 3 hours in 5% CO2, 37° C. and 95% humidity. For coating of plates, PBS++ only or PBS++ with CD3 antibody (concentration depending on donor and determined by CD3 titrations) is added 100 μl/well to Poly-D Lysine coated 96-well plates. Plates are sealed and incubated at room temperature for 3 hours on a table-top rocking platform. After incubation, plates are washed once with PBS−− and filled with 40 μl/well culture medium only. Compounds are then added (see next section) to medium only plates. After 3 hours of culturing the T-cells, cells are filtered through a cell strainer (Miltenyi Biotech, #130-041-407), counted again and concentration is adjusted to 1.25 Mio/ml.
Cells are then seeded 80 μl/well to the 40 μl/well including dispensed compounds according to plate layout. By adding cells, compounds are further diluted 1:3, and resulting in 100 k cells/120 μl/well. After 48 hours 40 μl of supernatant is collected carefully from the top while not disturbing the cells. Cells are assessed for proliferation 5 days later by measuring […] using CellTiterGlo (Promega).
Compounds were added in a 5 or 6 pt dose response with the Tecan D300e Digital Dispenser, all conditions 3 times more concentrated than the end-concentration, since cells are added afterwards (80 μl cells to 40 μl prepared medium with treatment). The DR was starting at 20 μM or 10 μM final top concentration and a dilution factor of 3.333. The positive control was the reference compound A1 that was added in a dose response as well, additionally to 3 wells of only 20 μM representing the positive stimulator control. All wells were normalized with DMSO to a final concentration of 0.6% (0.2% end-concentration).
After 5 days, for detection of ATP which is directly proportional to the number of cells present per well, the CellTiter-Glo® 2.0 Reagent is used. After visual control for toxicity or precipitations of the tested compounds, the plates are equilibrated to room temperature for 45 minutes. CellTiter-Glo® 2.0 Reagent is equilibrated to room temperature as well. After equilibration, an equal amount of CellTiter-Glo reagent is added to the cells (80 μl/well) with an electronic multichannel pipette. Plates are placed on a rocking platform for 15 minutes at room temperature. After incubation, the bottom of the plates is sealed with backing tape. Luminescence is measured with PHERAstar FSX (interval time 0.5 sec, gain 3000, focal height 15 mm) and exported as CSV file for analysis in Genedata screener.
CD3 and PBS plates were analysed separately in Genedata Screener using Roche Normalization PCT_POS_CTRL with DMSO set as Neutral Control and 20 μM of the reference compound A1 set as Stimulator Control/100%.
For CD3 conditions EC50 and Emax of the fitted sigmoidal curve were reported. If no curve could be fitted, the EC50 was reported as blank field and the Emax was based on individual data points. […] Compounds which activate unstimulated cells (see IL2 measurements) or compounds which negatively affected viability were flagged.
On the technique in general: Cellular ATP, detected with luciferase, serves as a proxy for viable cell number.

Experiment [1] deals with T1, DGKζ (hDGKzeta(1-928)-N-His) (Homo sapiens, UniProt Q13574).
T1 construct: hDGKzeta(1-928)-N-His; His (N); made in house; host or cells: Sf21 insect cells (baculovirus)
T1 sequence (Q13574 whole entry): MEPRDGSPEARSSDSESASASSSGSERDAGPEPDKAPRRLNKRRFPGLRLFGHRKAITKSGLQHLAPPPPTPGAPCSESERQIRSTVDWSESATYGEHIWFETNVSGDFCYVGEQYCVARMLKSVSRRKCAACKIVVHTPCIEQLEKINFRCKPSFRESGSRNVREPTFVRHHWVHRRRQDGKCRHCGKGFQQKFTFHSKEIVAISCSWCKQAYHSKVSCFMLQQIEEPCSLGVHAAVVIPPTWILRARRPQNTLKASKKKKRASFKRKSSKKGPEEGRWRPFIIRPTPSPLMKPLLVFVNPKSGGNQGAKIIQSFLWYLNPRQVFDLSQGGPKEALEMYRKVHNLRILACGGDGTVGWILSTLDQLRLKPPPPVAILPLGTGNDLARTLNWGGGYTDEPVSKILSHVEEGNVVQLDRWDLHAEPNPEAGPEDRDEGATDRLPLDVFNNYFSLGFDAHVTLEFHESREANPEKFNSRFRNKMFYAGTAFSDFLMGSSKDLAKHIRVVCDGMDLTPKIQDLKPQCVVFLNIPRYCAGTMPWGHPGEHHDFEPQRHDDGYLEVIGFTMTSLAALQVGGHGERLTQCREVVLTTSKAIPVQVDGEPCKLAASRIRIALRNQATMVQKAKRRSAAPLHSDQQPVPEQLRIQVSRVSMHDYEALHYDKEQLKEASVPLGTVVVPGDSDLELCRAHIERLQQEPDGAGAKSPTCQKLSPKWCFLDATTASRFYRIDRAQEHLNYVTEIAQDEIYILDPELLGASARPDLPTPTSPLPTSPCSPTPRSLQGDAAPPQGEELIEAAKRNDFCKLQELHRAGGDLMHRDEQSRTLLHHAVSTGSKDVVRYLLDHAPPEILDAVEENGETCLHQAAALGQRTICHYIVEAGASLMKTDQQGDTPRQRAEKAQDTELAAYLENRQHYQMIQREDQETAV
Briefly: In vitro DGK inhibition assay, DGKzeta ADP Glo (in house). The settings on record: 2 nM DGKζ, 50 μM ATP, 125 uM DLG in liposomes, 1 hour reaction. The class given is biochemical. As for the experimental part:
(§1) DGKα and ζ kinases use ATP to phosphorylate the substrate 1,2-dilauroyl-sn-glycerol (DLG, incorporated in the liposomes). ATP is converted to ADP as a result of this enzymatic reaction. After the kinase reaction, an ATP-depletion reagent is added to terminate the kinase reaction and deplete any remaining ATP, leaving only ADP. Second, a detection reagent is added to simultaneously convert ADP to ATP and allow the newly synthesized ATP to be converted to light using a coupled luciferase/luciferin reaction.
(§2) Full length DGKα and ζ were expressed in Sf21 insect cells by infecting the cells with the baculovirus stock at MOI of 2. Purification of both enzymes was performed as previously described by Takahashi et al., PeerJ, 2018 (Takahashi, D.; Sakane, F. Expression and purification of human diacylglycerol 5 kinase alpha from baculovirus-infected insect cells for structural studies. PeerJ2018, 6, No. e5449).
(§3) A concentrated liposome solution was prepared in assay buffer without DTT and BSA: 2 mM of DLG in 21 mM of total liposome (2 mM DLG/8 mM PS/11 mM PC). The reaction mixtures contain the assay buffer with a final DLG concentration of 125 uM ATP concentrations of 25 μM (for DGKA assay) or 50 μM (for DGKZ assay). The reactions were started by addition of DGK α and ζ kinases at 4 nM and 2 nM final concentrations, respectively. After 1 hour reaction, the amount of ADP formed was detected with the ADP-Glo kinase assay (Promega) according to the manufacturer instructions. Compounds were added in 11-points dose response, starting at […], 1:3 dilutions, with a final DMSO concentration of 2%. The multidrop combi was used as a liquid handler and luminescence was read with 0.5 s by the envision reader (PE).

The target in experiment [2] is T2, DGKα (hDGKalpha(1-735)-N-His) (Homo sapiens, UniProt P23743).
T2 construct: hDGKalpha(1-735)-N-His; His (N); made in house; host or cells: Sf21 insect cells (baculovirus)
T2 sequence (P23743 whole entry): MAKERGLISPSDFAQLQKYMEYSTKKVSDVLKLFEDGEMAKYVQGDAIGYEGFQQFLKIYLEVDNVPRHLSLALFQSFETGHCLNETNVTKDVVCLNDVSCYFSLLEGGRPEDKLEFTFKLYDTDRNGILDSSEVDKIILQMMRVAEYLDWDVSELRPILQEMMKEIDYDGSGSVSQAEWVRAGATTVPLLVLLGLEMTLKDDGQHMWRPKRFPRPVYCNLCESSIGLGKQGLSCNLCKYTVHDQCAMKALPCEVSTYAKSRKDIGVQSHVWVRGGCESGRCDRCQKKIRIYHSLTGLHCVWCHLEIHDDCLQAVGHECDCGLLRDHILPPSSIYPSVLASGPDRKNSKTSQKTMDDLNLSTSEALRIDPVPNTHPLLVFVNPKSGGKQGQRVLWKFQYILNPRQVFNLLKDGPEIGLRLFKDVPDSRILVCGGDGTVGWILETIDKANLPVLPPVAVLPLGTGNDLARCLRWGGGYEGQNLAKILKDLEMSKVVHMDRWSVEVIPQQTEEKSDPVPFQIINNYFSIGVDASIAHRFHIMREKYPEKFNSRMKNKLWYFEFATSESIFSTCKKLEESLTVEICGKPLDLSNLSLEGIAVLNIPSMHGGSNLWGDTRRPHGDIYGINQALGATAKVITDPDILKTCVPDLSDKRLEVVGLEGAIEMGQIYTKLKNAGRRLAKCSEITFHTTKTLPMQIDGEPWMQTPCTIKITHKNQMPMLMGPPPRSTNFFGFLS
Briefly: In vitro DGK inhibition assay, DGKalpha ADP Glo (in house). The class given is biochemical. To be noted: 4 nM DGKα, 25 μM ATP, 125 uM DLG in liposomes, 1 hour reaction. The procedure:
as §1, §2, §3
In general terms: ADP-Glo first removes unused ATP, then detects ADP through luciferase.

SMILES strings stand for the structures. Where “and” joins values, the source holds several entries; their conditions need not be identical. Equal values may be shown once.

On to `CC(C)(C#N)c1nnc(-c2ccc3c(c2)N(Cc2ccc(-c4ccc(OCC(F)(F)F)cn4)cc2)C(=O)[C@@H](N)CS3(=O)=O)o1` [Example 135, 2-[5-[(3R)-3-amino-1,1,4-trioxo-5-[[4-[5-(2,2,2-trifluoroethoxy)-2-pyridyl]phenyl]methyl]-2,3-dihydro-1λ^6,5-benzothiazepin-7-yl]-1,3,4-oxadiazol-2-yl]-2-methyl-propanenitrile], for which the “Emax proliferation (% activation)” value with primary human T-cells was determined as 149 % activation. The EC50 in the experiment with primary human T-cells came out at 257 nM. The values for the IC50 in experiment [1] and in experiment [2] were 786 nM and 1730 nM, respectively.
Turning to `CC(C)(C#N)c1nnc(-c2ccc3c(c2)N(Cc2ccc(-n4cc(C(F)(F)F)nn4)cc2)C(=O)[C@@H](N)CS3(=O)=O)o1` [Example 145, 2-[5-[(3R)-3-amino-1,1,4-trioxo-5-[[4-[4-(trifluoromethyl)triazo1-1-yl]phenyl]methyl]-2,3-dihydro-1λ^6,5-benzothiazepin-7-yl]-1,3,4-oxadiazol-2-yl]-2-methyl-propanenitrile], in the experiment with primary human T-cells, the “Emax proliferation (% activation)” value turned out to be 86 % activation and the EC50 amounted to 4260 nM. Besides, in experiment [1], the IC50 (commonly the concentration at which inhibition is half-maximal) was determined as 955 nM. Also, in experiment [2], half-maximal inhibition (IC50) was put at 18000 nM.
As for `N[C@H]1CS(=O)(=O)c2ccc(-c3nnc(C4(N)CCC(F)(F)CC4)o3)cc2N(Cc2ccc(-c3ccc(OC(F)(F)F)cn3)cc2)C1=O` [Example 178, (3R)-3-amino-7-[5-(1-amino-4,4-difluoro-cyclohexyl)-1,3,4-oxadiazol-2-yl]-1,1-dioxo-5-[[4-[5-(trifluoromethoxy)-2-pyridyl]phenyl]methyl]-2,3-dihydro-1λ^6,5-benzothiazepin-4-one], in the experiment on primary human T-cells, the “Emax proliferation (% activation)” value was determined as 96 % activation and the EC50 was 133 nM. The compound also yielded an IC50 in experiment [1] of 1690 nM. Also, 7100 nM corresponded to half-maximal inhibition in experiment [2] (IC50).
In the same order, the values of `CC(C)(C#N)Cc1nnc(-c2ccc3c(c2)N(Cc2ccc(-c4ccc(OC(F)(F)F)cn4)cc2)C(=O)[C@@H](N)CS3(=O)=O)o1` [Example 174, 3-[5-[(3R)-3-amino-1,1,4-trioxo-5-[[4-[5-(trifluoromethoxy)-2-pyridyl]phenyl]methyl]-2,3-dihydro-1λ^6,5-benzothiazepin-7-yl]-1,3,4-oxadiazol-2-yl]-2,2-dimethyl-propanenitrile] are 124 % activation, 543 nM, 1140 nM and 9300 nM.
In the same order, the values of `CCC(C#N)(CC)c1nnc(-c2ccc3c(c2)N(Cc2ccc(-c4ccc(OC(F)(F)F)cn4)cc2)C(=O)[C@@H](N)CS3(=O)=O)o1` [Example 176, 2-[5-[(3R)-3-amino-1,1,4-trioxo-5-[[4-[5-(trifluoromethoxy)-2-pyridyl]phenyl]methyl]-2,3-dihydro-1λ^6,5-benzothiazepin-7-yl]-1,3,4-oxadiazol-2-yl]-2-ethyl-butanenitrile] are 140 % activation, 85.7 nM, 1550 nM and 1530 nM.
In the same order, the values of `COC(F)(c1nnc(-c2ccc3c(c2)N(Cc2ccc(-c4ncn(C5CC5)n4)cc2)C(=O)[C@@H](N)CS3(=O)=O)o1)C(F)(F)F` (stereo partly drawn) [Example 66, (3R)-3-amino-5-[[4-(1-cyclopropyl-1,2,4-triazol-3-yl)phenyl]methyl]-1,1-dioxo-7-[5-(1,2,2,2-tetrafluoro-1-methoxy-ethyl)-1,3,4-oxadiazol-2-yl]-2,3-dihydro-1λ^6,5-benzothiazepin-4-one] are 112 % activation, 1290 nM, 6610 nM and 14900 nM.
For the compound `COc1ccc(-c2ccc(CN3C(=O)[C@@H](N)CS(=O)(=O)c4ccc(-c5nnc(C(C)(C)C#N)o5)cc43)cc2)cc1` [Example 45, 2-[5-[(3R)-3-amino-5-[[4-(4-methoxyphenyl)phenyl]methyl]-1,1,4-trioxo-2,3-dihydro-1λ^6,5-benzothiazepin-7-yl]-1,3,4-oxadiazol-2-yl]-2-methyl-propanenitrile], the IC50 in experiment [1] was 467 nM and 3210 nM.
In the case of `Cc1cc(-c2ccc(CN3C(=O)[C@@H](N)CS(=O)(=O)c4ccc(-c5nnc(C(C)(C)C#N)o5)cc43)cc2)ncc1OC(F)(F)F` [Example 144, 2-[5-[(3R)-3-amino-5-[[4-[4-methyl-5-(trifluoromethoxy)-2-pyridyl]phenyl]methyl]-1,1,4-trioxo-2,3-dihydro-1λ^6,5-benzothiazepin-7-yl]-1,3,4-oxadiazol-2-yl]-2-methyl-propanenitrile], in the experiment on primary human T-cells, the “Emax proliferation (% activation)” value turned out to be 87 % activation and the EC50 came out at 291 nM. Besides, it took 860 nM to reach half-maximal inhibition in experiment [1] (IC50). In experiment [2], this compound had an IC50 of 15500 nM.
In the same order, the values of `N#CC1(c2nnc(-c3ccc4c(c3)N(Cc3ccc(-c5ccc(OC(F)(F)F)cn5)cc3)C(=O)[C@@H](N)CS4(=O)=O)o2)CCOCC1` [Example 173, 4-[5-[(3R)-3-amino-1,1,4-trioxo-5-[[4-[5-(trifluoromethoxy)-2-pyridyl]phenyl]methyl]-2,3-dihydro-1λ^6,5-benzothiazepin-7-yl]-1,3,4-oxadiazol-2-yl]tetrahydropyran-4-carbonitrile] are 101 % activation, 235 nM, 416 nM and 2060 nM.
In the same order, the values of `Cn1nc(OC(F)(F)F)cc1-c1ccc(CN2C(=O)[C@@H](N)CS(=O)(=O)c3ccc(-c4nnc(C(C)(C)C#N)o4)cc32)cc1` [Example 148, 2-[5-[(3R)-3-amino-5-[[4-[2-methyl-5-(trifluoromethoxy)pyrazol-3-yl]phenyl]methyl]-1,1,4-trioxo-2,3-dihydro-1λ^6,5-benzothiazepin-7-yl]-1,3,4-oxadiazol-2-yl]-2-methyl-propanenitrile] are 186 % activation, 182 nM, 1050 nM and 737 nM.
